In US20090253634A1, “Methods and Compositions for the Treatment of Gastrointestinal Disorders” (MICROBIA, INC., priority 2005, published 2009):
Bridge positions count the residues as written; N and C are the ends. Peptide text beside a SMILES is read from it.

Tests used:
intestinal GC-C receptor = target: T1, intestinal GC-C receptor (Homo sapiens, UniProt P25092); experiment: GC-C receptor activity assay (cyclic GMP) in T84 cells; type: cell-based; settings: chemically synthesized peptides, cyclic GMP by EIA
T1 construct: monolayers of T84 cells in 24-well plates; host or cells: T84 human colon carcinoma cells
T1 sequence (P25092 24-1073): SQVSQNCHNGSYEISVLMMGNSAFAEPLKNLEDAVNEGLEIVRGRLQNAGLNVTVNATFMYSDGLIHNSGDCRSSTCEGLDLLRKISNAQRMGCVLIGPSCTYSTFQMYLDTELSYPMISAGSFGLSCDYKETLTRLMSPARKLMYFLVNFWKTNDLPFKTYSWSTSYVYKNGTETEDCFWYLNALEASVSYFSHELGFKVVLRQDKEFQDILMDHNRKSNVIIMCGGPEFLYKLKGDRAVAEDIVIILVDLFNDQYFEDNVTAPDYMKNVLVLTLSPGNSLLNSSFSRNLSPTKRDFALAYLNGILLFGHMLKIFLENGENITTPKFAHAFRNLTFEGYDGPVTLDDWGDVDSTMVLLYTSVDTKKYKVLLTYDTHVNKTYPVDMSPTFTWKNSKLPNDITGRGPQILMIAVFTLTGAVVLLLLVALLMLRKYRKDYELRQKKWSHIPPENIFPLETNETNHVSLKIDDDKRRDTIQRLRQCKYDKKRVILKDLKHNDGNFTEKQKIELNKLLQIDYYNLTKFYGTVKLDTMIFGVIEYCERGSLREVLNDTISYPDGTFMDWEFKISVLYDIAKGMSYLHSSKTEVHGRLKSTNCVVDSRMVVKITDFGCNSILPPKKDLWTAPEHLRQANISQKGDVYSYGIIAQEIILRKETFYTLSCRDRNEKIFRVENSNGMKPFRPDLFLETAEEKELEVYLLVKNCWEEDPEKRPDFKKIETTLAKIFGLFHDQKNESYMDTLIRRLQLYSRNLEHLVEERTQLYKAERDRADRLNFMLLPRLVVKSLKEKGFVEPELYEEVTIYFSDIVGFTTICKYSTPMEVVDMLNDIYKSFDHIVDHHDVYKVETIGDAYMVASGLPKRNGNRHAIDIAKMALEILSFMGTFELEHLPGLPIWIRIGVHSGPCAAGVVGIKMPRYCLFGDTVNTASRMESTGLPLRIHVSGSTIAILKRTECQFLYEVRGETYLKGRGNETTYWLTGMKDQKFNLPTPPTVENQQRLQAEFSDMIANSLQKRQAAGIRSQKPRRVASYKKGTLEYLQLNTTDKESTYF
Procedure: The ability of SEQ ID NO:5, SEQ ID NO:4, SEQ ID NO:3, and SEQ ID NO:6 to activate the intestinal GC-C receptor was assessed in an assay employing the T84 human colon carcinoma cell line (American Type Culture Collection (Bethesda, Md.)). For the assays cells were grown to confluency in 24-well culture plates with a 1:1 mixture of Ham's F12 medium and Dulbecco's modified Eagle's medium (DMEM), supplemented with 5% fetal calf serum and were used at between passages 54 and 60.
Briefly, monolayers of T84 cells in 24-well plates were washed twice with 1 ml/well DMEM, then incubated at 37° C. for 10 min with 0.45 ml DMEM containing 1 mM isobutylmethylxanthine (IBMX), a cyclic nucleotide phosphodiesterase inhibitor, Test peptides (50 μl) were then added and incubated for 30 minutes at 37° C. The media was aspirated and the reaction was then terminated by the addition of ice cold 0.5 ml of 0.1N HCl. The samples were held on ice for 20 minutes and then evaporated to dryness using a heat gun or vacuum centrifugation.

gastrointestinal transit [1] = experiment: rat gastrointestinal transit (GIT) assay; type: in vivo, CD rats
Procedure: In order to determine whether the peptides increase the rate of gastrointestinal transit, the peptides and controls were tested using a murine gastrointestinal transit (GIT) assay (Moon et al. Infection and Immunity 25:127, 1979). In this assay, charcoal, which can be readily visualized in the gastrointestinal tract is administered to mice after the administration of a test compound. The distance traveled by the charcoal is measured and expressed as a percentage of the total length of the […].
Mice were fasted with free access to water for 12 to 16 hours before the treatment with peptide or control buffer. The peptides were orally administered at 1 μg/kg-1 mg/kg of peptide in buffer ([…] pH 7.5) 7 minutes before being given an oral dose of 5% Activated Carbon (Aldrich 242276-250G). Control mice were administered buffer only before being given a dose of Activated Carbon. After 15 minutes, the mice were sacrificed and their intestines from the stomach to the cecum were dissected. The total length of the intestine as well as the distance traveled from the stomach to the charcoal front was measured for each animal and the results are expressed as the percent of the total length of the intestine traveled by the charcoal front. All results are reported as the average of 10 mice±standard deviation. […] P-values are calculated using a two-sided T-Test assuming unequal variances. […]

gastrointestinal transit [2] = experiment: gastrointestinal transit assay in wild-type and GC-C KO mice; type: in vivo; settings: oral 100 μg/kg
Procedure: Wild type and GC-C KO mice were fasted overnight and SEQ ID NO: 3 or vehicle alone were orally administered 10 minutes prior to an oral dose of a 10% Activated Carbon/10% Gum Arabic suspension. Animals were sacrificed […] after peptide or vehicle administration.

[3] = tested on: abdominal EMG response to colorectal distension; experiment: colorectal distension in WT and GC-C KO mice, basal and TNBS-induced; type: in vivo; settings: for TNBS induced hypersensitivity to CRD: oral 0.01 μg/kg
Procedure: TNBS induced visceral hypersensitivity was assessed in WT and GC-C KO mice. Two groups (WT and GC-C KO) of male mice (22-25g) were surgically prepared for electromyographic (EMG) recordings. Three electrodes were implanted in the striated muscles of the abdomen for EMG recording of abdominal contractions. Colorectal distension (CRD) was performed with a balloon inflated by 10 s steps of 0.02 ml from 0 to 0.12 ml. Under basal conditions mice were submitted to control CRD (time 0) followed by oral administration of SEQ ID NO:3 (0.01 and 0.3 μg/kg) or vehicle only (distilled water, 1 ml) at 3 hours. One hour post dosing the CRD procedure was repeated. Abdominal EMG contractile response to colorectal distension in basal conditions in both WT and GC-C KO mice (12-14 mice per group) was determined in the absence of vehicle and SEQ ID NO:3, and the mean +/− standard error of the mean (SEM) is graplhically depicted in FIG. 7c.
For TNBS induced visceral hypersensitivity conditions, mice were submitted to control CRD (time 0) and TNBS (20 mg/kg) was administered at 3 days. Three days post intracolonic TNBS-induction animals were orally admistered SEQ ID NO:3 (0.01 and 0.3 μg/kg) or vehicle (distilled water, 1 ml) 1 hour before CRD. The effect of SEQ ID NO:3 (0.01 μg/kg) on abdominal response to colorectal distension after TNBS in WT and GC-C KO mice (12-14 per group) at a volume distension of […] was determined and the mean +/− standard error of the mean (SEM) is graphically depicted in FIG. 7d.

[4] = tested on: ligated loop in the small intestine; experiment: ligated intestinal loop model in wild-type and GC-C KO mice; type: in vivo; settings: 5 μg injected into loop, 90 minutes
Procedure: The length of each loop was also recorded.

C[C@@H]1NC(=O)[C@@H]2CCCN2C(=O)[C@H](CC(N)=O)NC(=O)[C@@H]2CSSC[C@H](N)C(=O)N[C@H]3CSSC[C@H](NC1=O)C(=O)N[C@@H]([C@@H](C)O)C(=O)NCC(=O)N[C@H](C(=O)N[C@@H](Cc1ccc(O)cc1)C(=O)O)CSSC[C@H](NC(=O)[C@H](Cc1ccc(O)cc1)NC(=O)[C@H](CCC(=O)O)NC3=O)C(=O)N2 [SEQ ID NO:3] (H-CCEYCCNPACTGCY-OH; disulfide 1-6, 2-10, 5-13; N-terminus and C-terminus assumed)
activity in GC-C receptor activity assay (intestinal GC-C receptor): activity comparable to SEQ ID NO:4 | intestinal transit, dose dependence (gastrointestinal transit [1]; female rats, similar effects in male rats, FIG. 4e): increases in a dose dependent manner | intestinal transit (gastrointestinal transit [1]; rat GIT assay, FIG. 4d): intestinal transit increases | gastrointestinal transit rate versus vehicle (gastrointestinal transit [2]): an increase (p<0.001) in gastrointestinal transit rate | TNBS induced hypersensitivity to CRD ([3]; GC-C KO mice): not observed | TNBS induced hypersensitivity to CRD ([3]; WT mice, volume distension of 0.8 ml): reduces the TNBS induced hypersensitivity to CRD | EMG response to colorectal distension ([3]; basal conditions, WT mice, oral 0.01 and 0.3 μg/kg): decreased the EMG response to colorectal distension | cGMP activity in ligated loop fluid [4]: no effect | secretion in ligated loop (weight to length ratio) [4]: no effect
